# Data taken from patent US20120083522A1, “MODULATION OF INFLAMMATORY RESPONSES BY FACTOR XI” (Isis Pharmaceuitcals, inc., priority 2009, published 2012).
# What was measured:
# human Factor XI mRNA [1] = assay: Dose-dependent inhibition in HepG2 cells, lipofectin (Example 4); assay type: cell-based; conditions: 16 hours
# In short: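 HepG2 cells at 10,000 per well were lipofectin-transfected with 9.375, 18.75, 37.5 or 75 nM antisense oligonucleotide for about 16 h. Factor XI mRNA was quantified by real-time PCR (primer probe set RTS 2966) and normalised to RIBOGREEN total RNA. Values are percent inhibition versus untreated cells.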
# human Factor XI mRNA [2] = assay: Dose-dependent inhibition in HepG2 cells, electroporation (Example 4); assay type: cell-based; conditions: 16 hours
# In short: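 HepG2 cells electroporated with 0.7, 2.2, 6.7 or 20 μM antisense gapmer and harvested after ~16 h. Factor XI mRNA quantified by qRT-PCR (primer probe set RTS 2966), normalised to total RNA (RIBOGREEN). Reported as percent inhibition versus untreated control cells.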
# human Factor XI mRNA [3] = assay: Dose-dependent inhibition in HepG2 cells, lipofectin (Example 5); assay type: cell-based; conditions: 16 hours
# Method: (§1) Cells were plated at a density of 10,000 cells per well and transfected using lipofectin reagent with 2.34 nM, 4.69 nM, 9.375 nM, 18.75 nM, 37.5 nM, and 75 nM concentrations of antisense oligonucleotide, as specified in Table 11. After a treatment period of approximately 16 hours, RNA was isolated from the cells and human Factor XI mRNA levels were measured by quantitative real-time PCR. Human Factor XI primer probe set RTS 2966 was used to measure mRNA levels. Factor XI mRNA levels were adjusted according to total RNA content, as measured by RIBOGREEN®. Results are presented as percent inhibition of human Factor XI, relative to untreated control cells.
# human Factor XI mRNA [4] = assay: Dose-dependent inhibition in HepG2 cells, electroporation (Example 5); assay type: cell-based; conditions: approx. 16 h, relative to untreated control cells
# Method: The gapmers were also transfected via electroporation and their dose dependent inhibition of human Factor XI mRNA was measured. Cells were plated at a density of 20,000 cells per well and transfected via electroporation with 625 nM, 1250 nM, 2500 nM, 5,000 nM, 10,000 nM, and 20,000 nM concentrations of antisense oligonucleotide, as specified in Table 12. After a treatment period of approximately 16 hours, RNA was isolated from the cells and human Factor XI mRNA levels were measured by quantitative real-time PCR. Human Factor XI primer probe set RTS 2966 was used to measure mRNA levels. Factor XI mRNA levels were adjusted according to total RNA content, as measured by RIBOGREEN®. Results are presented as percent inhibition of human Factor XI, relative to untreated control cells.
# human Factor XI mRNA [5] = assay: Dose-dependent inhibition in cyno primary hepatocytes, electroporation (Example 6); assay type: cell-based, cynomolgus monkey; conditions: approx. 16 h
# Method: Cells were plated at a density of 35,000 cells per well and transfected via electroporation with 0.74 nM, 2.2 nM, 6.7 nM, 20 nM, 60 nM, and 180 nM concentrations of antisense oligonucleotide, as specified in Table 13. After a treatment period of approximately 16 hours, RNA was isolated from the cells and human Factor XI mRNA levels were measured by quantitative real-time PCR. Human Factor XI primer probe set RTS 2966 was used to measure mRNA levels. Factor XI mRNA levels were adjusted according to total RNA content, as measured by RIBOGREEN®. Results are presented as percent inhibition of human Factor XI, relative to untreated control cells.
# human Factor XI mRNA [6] = assay: Dose-dependent inhibition in HepB3 cells, lipofectin (Example 7); assay type: cell-based; conditions: approx. 16 h
# Method: as §1, with “4,000” for “10,000”, “2.3” for “2.34”, “4.7” for “4.69”, “9.4” for “9.375”, “14.” for “11.”, “of” for “of human”
# human Factor XI mRNA [7] = assay: Dose-dependent inhibition in HepB3 cells, electroporation (Example 7); assay type: cell-based; conditions: approx. 16 h
# Method: The gapmers were also transfected via electroporation and their dose dependent inhibition of human Factor XI mRNA was measured. Cells were plated at a density of 20,000 cells per well and transfected via electroporation with 41.15 nM, 123.457 nM, 370.37 nM, 1111.11 nM, 3333.33 nM, and 10,000 nM concentrations of antisense oligonucleotide, as specified in Table 15. After a treatment period of approximately 16 hours, RNA was isolated from the cells and human Factor XI mRNA levels were measured by quantitative real-time PCR. Human Factor XI primer probe set RTS 2966 was used to measure mRNA levels. Factor XI mRNA levels were adjusted according to total RNA content, as measured by RIBOGREEN®. Results are presented as percent inhibition of human Factor XI, relative to untreated control cells.
# [8] = Tolerability in Sprague-Dawley rats: body and organ weight (Example 19); assay type: in vivo; conditions: 50 mg/kg s.c. twice per week for 6 weeks, change over weight at start of study
# Description: (§2) Urine samples were taken before the start of treatment.
# The body weights are presented in Table 78 and are expressed as a percent change over the weights taken at the start of the study.
# [9] = Tolerability in Sprague-Dawley rats: kidney function (Example 19); assay type: in vivo; conditions: Sprague Dawley rats; for urine protein/creatinine ratio, After: after 50 mg/kg s.c. twice per week for 6 weeks; for urine protein/creatinine ratio, Before: before antisense oligonucleotide treatment
# Description: as §2
substance,measurement,setting,value
"416826 (antisense ATGCCCTTCATGTCTAGGTC; 5-10-5 gapmer, wing sugar chemistry not given here, further chemistry not given here) [compound 416826]","percent inhibition of Factor XI mRNA, relative to untreated control cells",human Factor XI mRNA [1]; 9.375 nM,8%
same,"percent inhibition of Factor XI mRNA, relative to untreated control cells",human Factor XI mRNA [1]; 18.75 nM,36%
same,"percent inhibition of Factor XI mRNA, relative to untreated control cells",human Factor XI mRNA [1]; 37.5 nM,58%
same,"percent inhibition of Factor XI mRNA, relative to untreated control cells",human Factor XI mRNA [1]; 75 nM,84%
same,"percent inhibition of Factor XI mRNA, relative to untreated control cells",human Factor XI mRNA [2]; 0.7 μM,2%
same,"percent inhibition of Factor XI mRNA, relative to untreated control cells",human Factor XI mRNA [2]; 2.2 μM,47%
same,"percent inhibition of Factor XI mRNA, relative to untreated control cells",human Factor XI mRNA [2]; 6.7 μM,86%
same,"percent inhibition of Factor XI mRNA, relative to untreated control cells",human Factor XI mRNA [2]; 20 μM,82%
same,"percent inhibition of human Factor XI mRNA, relative to untreated control cells",human Factor XI mRNA [3]; 2.34 nM,15%
same,"percent inhibition of human Factor XI mRNA, relative to untreated control cells",human Factor XI mRNA [3]; 4.69 nM,22%
same,"percent inhibition of human Factor XI mRNA, relative to untreated control cells",human Factor XI mRNA [3]; 9.375 nM,32%
same,"percent inhibition of human Factor XI mRNA, relative to untreated control cells",human Factor XI mRNA [3]; 18.75 nM,54%
same,"percent inhibition of human Factor XI mRNA, relative to untreated control cells",human Factor XI mRNA [3]; 37.5 nM,76%
same,"percent inhibition of human Factor XI mRNA, relative to untreated control cells",human Factor XI mRNA [3]; 75 nM,90%
same,percent inhibition of human Factor XI mRNA,human Factor XI mRNA [4]; 625 nM,67%
same,percent inhibition of human Factor XI mRNA,human Factor XI mRNA [4]; 1250 nM,82%
same,percent inhibition of human Factor XI mRNA,human Factor XI mRNA [4]; 2500 nM,89%
same,percent inhibition of human Factor XI mRNA,human Factor XI mRNA [4]; 5000 nM,92%
same,percent inhibition of human Factor XI mRNA,human Factor XI mRNA [4]; 10000 nM,95%
same,percent inhibition of human Factor XI mRNA,human Factor XI mRNA [4]; 20000 nM,97%
same,percent inhibition of human Factor XI mRNA,human Factor XI mRNA [5]; 0.74 nM,13%
same,percent inhibition of human Factor XI mRNA,human Factor XI mRNA [5]; 2.2 nM,24%
same,percent inhibition of human Factor XI mRNA,human Factor XI mRNA [5]; 6.7 nM,34%
same,percent inhibition of human Factor XI mRNA,human Factor XI mRNA [5]; 20 nM,67%
same,percent inhibition of human Factor XI mRNA,human Factor XI mRNA [5]; 60 nM,69%
same,percent inhibition of human Factor XI mRNA,human Factor XI mRNA [5]; 180 nM,71%
same,percent inhibition of human Factor XI mRNA,human Factor XI mRNA [6]; 2.3 nM,16%
same,percent inhibition of human Factor XI mRNA,human Factor XI mRNA [6]; 4.7 nM,28%
same,percent inhibition of human Factor XI mRNA,human Factor XI mRNA [6]; 9.4 nM,38%
same,percent inhibition of human Factor XI mRNA,human Factor XI mRNA [6]; 18.75 nM,55%
same,percent inhibition of human Factor XI mRNA,human Factor XI mRNA [6]; 37.5 nM,64%
same,percent inhibition of human Factor XI mRNA,human Factor XI mRNA [6]; 75 nM,66%
same,percent inhibition of human Factor XI mRNA,human Factor XI mRNA [7]; 41.15 nM,0%
same,percent inhibition of human Factor XI mRNA,human Factor XI mRNA [7]; 123.457 nM,0%
same,percent inhibition of human Factor XI mRNA,human Factor XI mRNA [7]; 370.37 nM,34%
same,percent inhibition of human Factor XI mRNA,human Factor XI mRNA [7]; 1111.11 nM,61%
same,percent inhibition of human Factor XI mRNA,human Factor XI mRNA [7]; 3333.33 nM,87%
same,percent inhibition of human Factor XI mRNA,human Factor XI mRNA [7]; 10000 nM,92%
same,Percent change in Body weight,[8],−40%
same,"urine protein/creatinine ratio, After",[9],11.4
same,"urine protein/creatinine ratio, Before",[9],1.0
"416892 (antisense GCCCTTCATGTCTAGGTCCA; 3-14-3 chimeric gapmer, wing sugar chemistry not given here, further chemistry not given here) [compound 416892]","percent inhibition of Factor XI mRNA, relative to untreated control cells",human Factor XI mRNA [1]; 9.375 nM,16%
same,"percent inhibition of Factor XI mRNA, relative to untreated control cells",human Factor XI mRNA [1]; 18.75 nM,50%
same,"percent inhibition of Factor XI mRNA, relative to untreated control cells",human Factor XI mRNA [1]; 37.5 nM,70%
same,"percent inhibition of Factor XI mRNA, relative to untreated control cells",human Factor XI mRNA [1]; 75 nM,85%
same,"percent inhibition of Factor XI mRNA, relative to untreated control cells",human Factor XI mRNA [2]; 0.7 μM,14%
same,"percent inhibition of Factor XI mRNA, relative to untreated control cells",human Factor XI mRNA [2]; 2.2 μM,52%
same,"percent inhibition of Factor XI mRNA, relative to untreated control cells",human Factor XI mRNA [2]; 6.7 μM,82%
same,"percent inhibition of Factor XI mRNA, relative to untreated control cells",human Factor XI mRNA [2]; 20 μM,92%
same,"percent inhibition of human Factor XI mRNA, relative to untreated control cells",human Factor XI mRNA [3]; 2.34 nM,14%
same,"percent inhibition of human Factor XI mRNA, relative to untreated control cells",human Factor XI mRNA [3]; 4.69 nM,34%
same,"percent inhibition of human Factor XI mRNA, relative to untreated control cells",human Factor XI mRNA [3]; 9.375 nM,49%
same,"percent inhibition of human Factor XI mRNA, relative to untreated control cells",human Factor XI mRNA [3]; 18.75 nM,70%
same,"percent inhibition of human Factor XI mRNA, relative to untreated control cells",human Factor XI mRNA [3]; 37.5 nM,84%
same,"percent inhibition of human Factor XI mRNA, relative to untreated control cells",human Factor XI mRNA [3]; 75 nM,93%
same,percent inhibition of human Factor XI mRNA,human Factor XI mRNA [4]; 625 nM,66%
same,percent inhibition of human Factor XI mRNA,human Factor XI mRNA [4]; 1250 nM,86%
same,percent inhibition of human Factor XI mRNA,human Factor XI mRNA [4]; 2500 nM,96%
same,percent inhibition of human Factor XI mRNA,human Factor XI mRNA [4]; 5000 nM,97%
same,percent inhibition of human Factor XI mRNA,human Factor XI mRNA [4]; 10000 nM,100%
same,percent inhibition of human Factor XI mRNA,human Factor XI mRNA [4]; 20000 nM,100%
same,percent inhibition of human Factor XI mRNA,human Factor XI mRNA [5]; 0.74 nM,20%
same,percent inhibition of human Factor XI mRNA,human Factor XI mRNA [5]; 2.2 nM,20%
same,percent inhibition of human Factor XI mRNA,human Factor XI mRNA [5]; 6.7 nM,43%
same,percent inhibition of human Factor XI mRNA,human Factor XI mRNA [5]; 20 nM,62%
same,percent inhibition of human Factor XI mRNA,human Factor XI mRNA [5]; 60 nM,88%
same,percent inhibition of human Factor XI mRNA,human Factor XI mRNA [5]; 180 nM,92%
same,percent inhibition of human Factor XI mRNA,human Factor XI mRNA [6]; 2.3 nM,28%
same,percent inhibition of human Factor XI mRNA,human Factor XI mRNA [6]; 4.7 nM,34%
same,percent inhibition of human Factor XI mRNA,human Factor XI mRNA [6]; 9.4 nM,50%
same,percent inhibition of human Factor XI mRNA,human Factor XI mRNA [6]; 18.75 nM,68%
same,percent inhibition of human Factor XI mRNA,human Factor XI mRNA [6]; 37.5 nM,82%
same,percent inhibition of human Factor XI mRNA,human Factor XI mRNA [6]; 75 nM,72%
same,percent inhibition of human Factor XI mRNA,human Factor XI mRNA [7]; 41.15 nM,9%
same,percent inhibition of human Factor XI mRNA,human Factor XI mRNA [7]; 123.457 nM,12%
same,percent inhibition of human Factor XI mRNA,human Factor XI mRNA [7]; 370.37 nM,28%
same,percent inhibition of human Factor XI mRNA,human Factor XI mRNA [7]; 1111.11 nM,65%
same,percent inhibition of human Factor XI mRNA,human Factor XI mRNA [7]; 3333.33 nM,89%
same,percent inhibition of human Factor XI mRNA,human Factor XI mRNA [7]; 10000 nM,98%
same,Percent change in Body weight,[8],−39%
same,"urine protein/creatinine ratio, After",[9],21.3
same,"urine protein/creatinine ratio, Before",[9],0.8
